Literature values as cited in PMC2810191 (Biochemistry, 2009).

Test system: Bacillus anthracis

## CCc1nc(N)nc(N)c1C#CCc1cc(OC)ccc1OC [UCP120B, 2,4-diamino-5-(3-(2,5-dimethoxyphenyl)prop-1-ynyl)-6-ethyl-pyrimidine]
  inhibition of growth of the bacteria: modestly inhibits the growth of the bacteria
